# Test system: fetal cells
# Assay: Fetal cell number in blood drawn into sodium heparin or EDTA tubes, digital PCR
# Assay type: cell-based
# Settings: composition containing heparin compared to composition containing EDTA; processed within 2 hrs after blood draw; FIG. 1
# Description: The number of fetal cells in solutions containing EDTA or heparin were compared (FIG. 1). Pre-procedural blood samples (10 ml per condition) were drawn into either sodium heparin tubes or EDTA tubes. Samples were processed within 2 hrs after blood draw. Briefly, whole blood samples were centrifuged to separate blood cells and plasma. Fetal gender was determined by digital PCR using plasma. Blood cell pellets were washed 5 times in PBS to remove cell-free DNA. DNA was then extracted from washed blood cells with a Qiagen column. The fetal cell number in samples with a male fetus was enumerated by digital PCR.
substance,measurement,value
heparin,fetal cell stability,higher stability

# Reference: US20110027771A1, “METHODS AND COMPOSITIONS FOR CELL STABILIZATION” (Artemis Health, Inc., priority 2009, published 2011)
